Here are results for 9 molecules from US12441725B2, “ISO-citrate dehydrogenase (IDH) inhibitor” (ZHEJIANG METON PHARMACEUTICAL CO., LTD, priority 2019, dated 2025).

One experiment concerns the target T1, IDH1 R132C (Homo sapiens, UniProt O75874, R132C).
T1 construct: 6xHis
The experiment in a line: Biochemical assay for IDH inhibition (NADPH fluorescence), mutant IDH1 R132C. The settings on record: 25 nM IDH1-R132C, 1 hour pre-incubation, in triplet. A digest of the protocol: (§1)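 The read-out was the linear-phase loss of NADPH fluorescence (340/460 nm) over 15 min, background-subtracted and normalized to DMSO wells, giving triplicate IC50 values. Beforehand, R132H (50 nM) or R132C (25 nM) was exposed to compound for 1 h at room temperature with 1.33 mM α-KG at pH 7.5, and the reaction was triggered by adding an 80 μM NADPH solution.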

In another experiment the target is T2, IDH1 R132H (Homo sapiens, UniProt O75874, R132H).
T2 construct: 6xHis
T2 sequence (O75874 whole entry R132H): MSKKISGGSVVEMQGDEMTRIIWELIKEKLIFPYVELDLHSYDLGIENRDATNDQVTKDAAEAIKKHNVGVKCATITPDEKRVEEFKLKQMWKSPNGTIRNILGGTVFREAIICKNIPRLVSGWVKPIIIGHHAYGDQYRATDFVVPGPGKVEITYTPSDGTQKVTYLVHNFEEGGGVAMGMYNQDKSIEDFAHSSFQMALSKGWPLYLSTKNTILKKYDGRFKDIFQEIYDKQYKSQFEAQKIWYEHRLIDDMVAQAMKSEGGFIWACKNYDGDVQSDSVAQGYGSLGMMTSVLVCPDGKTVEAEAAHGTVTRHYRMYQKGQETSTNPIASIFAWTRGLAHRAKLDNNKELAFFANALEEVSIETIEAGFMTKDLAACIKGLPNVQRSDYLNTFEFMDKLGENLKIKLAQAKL
The experiment in a line: Biochemical assay for IDH inhibition (NADPH fluorescence), mutant IDH1 R132H. As to conditions: 50 nM IDH1-R132H, 1 hour pre-incubation, in triplet. A digest of the protocol: as §1

The target of experiment [1] is T3, IDH (endogenous IDH1 R132C) in HT1080 cell (Homo sapiens, UniProt O75874, R132C).
T3 construct: which harbor endogenous heterozygous IDH1 R132C and R132H mutation respectively and accumulate D-2-HG
T3 sequence (O75874 2-414 R132C): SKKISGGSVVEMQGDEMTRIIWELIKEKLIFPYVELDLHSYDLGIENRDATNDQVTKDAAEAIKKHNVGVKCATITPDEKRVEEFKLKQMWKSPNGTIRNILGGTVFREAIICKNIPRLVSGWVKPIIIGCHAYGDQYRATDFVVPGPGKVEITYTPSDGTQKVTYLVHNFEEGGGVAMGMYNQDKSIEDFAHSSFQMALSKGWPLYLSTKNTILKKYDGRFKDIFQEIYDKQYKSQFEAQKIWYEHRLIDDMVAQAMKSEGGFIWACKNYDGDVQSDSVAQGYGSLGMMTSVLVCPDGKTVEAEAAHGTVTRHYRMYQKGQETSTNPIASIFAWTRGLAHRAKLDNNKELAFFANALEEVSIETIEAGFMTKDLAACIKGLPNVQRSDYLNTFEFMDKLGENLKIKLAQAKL
The experiment in a line: Cell-based assay for IDH inhibition (decrease of D-2-HG) in HT1080 cells. As to conditions: human fibrosarcoma cell line HT1080, 16 hours treatment, D-2-HG by LC-MS, in triplet. The gist of the method: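 LC-MS/MS quantification of D-2-HG, normalized to glutamate, follows a 16 h compound exposure of IDH1 R132C HT1080 cells in DMEM with 10% FBS. Extraction uses pre-chilled 40% methanol/40% acetonitrile in water. Triplicate determinations; IC50 from D-2-HG levels relative to DMSO-treated cells.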

T1 sequence (O75874 whole entry R132C): as the sequence (O75874 whole entry R132H) above, with H132C counted along it

On to `CCN1Cc2c(ccnc2N[C@@H](C)c2ccc(-c3ccc(C)cn3)c(F)c2)C1=O` [Compound 82, (S)-2-ethyl-4-((1-(3-fluoro-4-(5-methylpyridin-2-yl)phenyl)ethyl)amino)-2,3-dihydro-1H-pyrrolo[3,4-c]pyridin-1-one], for which the IC50 (on IDH1 R132C; on IDH1 R132H; in experiment [1]) was greater than 1 µM each time.
On to `CCN1Cc2c(ccnc2N[C@@H](C)c2ccc(-c3ccn(C)n3)c(F)c2)C1=O` [Compound 83, (S)-2-ethyl-4-((1-(3-fluoro-4-(1-methyl-1H-pyrazol-3-yl)phenyl)ethyl)amino)-2,3-dihydro-1H-pyrrolo[3,4-c]pyridin-1-one], for which the 50% inhibitory concentration (IC50) (on IDH1 R132C; at IDH1 R132H; in experiment [1]) was greater than 1 µM in each case.
Consider `CCN1Cc2c(ccnc2N[C@@H](C)c2ccc(-c3ccnc(C(C)(C)C#N)c3)c(F)c2)C1=O` [Compound 84, (S)-2-(4-(4-(1-((2-ethyl-1-oxo-2,3-dihydro-1H-pyrrolo[3,4-c]pyridin-4-yl)amino)ethyl)-2-fluorophenyl)pyridin-2-yl)-2-methylpropanenitrile], for which the half-inhibitory concentration (IC50) (usually the concentration that inhibits the measured activity by half) at IDH1 R132C is greater than 1 µM; at IDH1 R132H, 0.1 to 0.5 µM; in experiment [1], greater than 1 µM.
With `CCN1Cc2c(ccnc2N[C@@H](C)c2ccc(-c3ccnc(C(O)C4CC4)c3)c(F)c2)C1=O` (stereo partly drawn) [Compound 85, 4-(((1S)-1-(4-(2-(cyclopropyl(hydroxy)methyl)pyridin-4-yl)-3-fluorophenyl)ethyl)amino)-2-ethyl-2,3-dihydro-1H-pyrrolo[3,4-c]pyridin-1-one], the concentration for half-maximal inhibition (IC50) (on IDH1 R132C; at IDH1 R132H; in experiment [1]) was greater than 1 µM throughout.
`CCN1Cc2c(ccnc2N[C@@H](C)c2ccc(-c3ccnc(C(=O)C4CC4)c3)c(F)c2)C1=O` [Compound 86, (S)-4-((1-(4-(2-(cyclopropanecarbonyl)pyridin-4-yl)-3-fluorophenyl)ethyl)amino)-2-ethyl-2,3-dihydro-1H-pyrrolo[3,4-c]pyridin-1-one]: the 50% inhibitory concentration (IC50) (on IDH1 R132C; on IDH1 R132H; in experiment [1]) was greater than 1 µM in each case.
`CCN1Cc2c(ccnc2N[C@@H](C)c2cc(F)c(-c3ccnc(C(C)(C)C)c3)cc2F)C1=O` [Compound 87, (S)-4-((1-(4-(2-(tert-butyl)pyridin-4-yl)-2,5-difluorophenyl)ethyl)amino)-2-ethyl-2,3-dihydro-1H-pyrrolo[3,4-c]pyridin-1-one]: the IC50 (on IDH1 R132C; on IDH1 R132H; in experiment [1]) was less than 0.1 µM each time.
Consider `CCN1Cc2c(ccnc2N[C@@H](C)c2cc(F)c(-c3ccnc(C(F)(F)F)c3)cc2F)C1=O` [Compound 88, (S)-4-((1-(2,5-difluoro-4-(2-(trifluoromethyl)pyridin-4-yl)phenyl)ethyl)amino)-2-ethyl-2,3-dihydro-1H-pyrrolo[3,4-c]pyridin-1-one], for which the IC50 on IDH1 R132C was greater than 1 µM; on IDH1 R132H, 0.5 to 1 µM; in experiment [1] it was greater than 1 µM.
As for `CCN1Cc2c(ccnc2N[C@@H](C)c2cc(F)c(-c3ccnc(C4CCC4)c3)cc2F)C1=O` [Compound 89, (S)-4-((1-(4-(2-cyclobutylpyridin-4-yl)-2,5-difluorophenyl)ethyl)amino)-2-ethyl-2,3-dihydro-1H-pyrrolo[3,4-c]pyridin-1-one], the IC50 is 0.1 to 0.5 µM at IDH1 R132C, less than 0.1 µM on IDH1 R132H and 0.1 to 0.5 µM in experiment [1].
Regarding `CCN1Cc2c(ccnc2N[C@@H](C)c2cc(F)c(-c3ccnc(C4CC4)c3)cc2F)C1=O` [Compound 90, (S)-4-((1-(4-(2-cyclopropylpyridin-4-yl)-2,5-difluorophenyl)ethyl)amino)-2-ethyl-2,3-dihydro-1H-pyrrolo[3,4-c]pyridin-1-one], the values for the IC50 (on IDH1 R132C; on IDH1 R132H; in experiment [1]) were greater than 1 µM, 0.1 to 0.5 µM and 0.5 to 1 µM, respectively.
